Results on twelve compounds are retold here after patent publication US20260356856A1, “KRAS G12S AND G12C INHIBITORS” (MIRATI THERAPEUTICS, INC., priority 2023, published 2026).

One assay concerns the target T1, KRas WT (Homo sapiens, UniProt P01116).
T1 construct: Biotinylated KRas (corresponding to amino acids 1-169, produced at Accelegan Inc.); biotin (biotinylated); purchased Accelegan Inc
Description: KRas binding assay, TR-FRET displacement of Cy5 labelled tracer. As to conditions: 60-minute incubation at room temperature, 1% DMSO, pH 7.5. The method in brief:
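Compound competes with tracer for biotin-labelled KRas (amino acids 1-169) bound to terbium-streptavidin. Incubation runs 60 minutes at room temperature, final DMSO 1%. IC50 values derive from a 4-parameter fit.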
A general note: Time-resolved FRET reads energy transfer from a long-lived donor to a nearby acceptor.

In the next assay the target is T2, KRas G12S (Homo sapiens, UniProt P01116, G12S).
T2 construct: Biotinylated KRas (corresponding to amino acids 1-169, produced at Accelegan Inc.); biotin (biotinylated); purchased Accelegan Inc
T2 sequence (P01116 1-169 isoform P01116-2 G12S): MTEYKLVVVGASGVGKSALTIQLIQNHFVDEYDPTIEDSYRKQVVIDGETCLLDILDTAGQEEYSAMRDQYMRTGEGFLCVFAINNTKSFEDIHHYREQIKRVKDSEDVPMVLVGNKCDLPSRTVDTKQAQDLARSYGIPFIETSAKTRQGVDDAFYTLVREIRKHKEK
The assay is described as above. The following applies: 60-minute incubation at room temperature, 1% DMSO, pH 7.5. The method in brief: (§1)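 Assay buffer was HEPES (50 mM, pH 7.5) with MgCl2 (5 mM), DTT (1 mM) and Tween-20 (0.005%). Biotinylated KRas spanning residues 1-169 met tracer, terbium streptavidin and compound (1% DMSO, final) for 60 minutes at ambient temperature before reading. POC values were fitted for IC50.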

Another assay deals with T3, KRas G12C (Homo sapiens, UniProt P01116, G12C).
T3 construct: Biotinylated KRas (corresponding to amino acids 1-169, produced at Accelegan Inc.); biotin (biotinylated); purchased Accelegan Inc
T3 sequence (P01116 1-169 isoform P01116-2 G12C): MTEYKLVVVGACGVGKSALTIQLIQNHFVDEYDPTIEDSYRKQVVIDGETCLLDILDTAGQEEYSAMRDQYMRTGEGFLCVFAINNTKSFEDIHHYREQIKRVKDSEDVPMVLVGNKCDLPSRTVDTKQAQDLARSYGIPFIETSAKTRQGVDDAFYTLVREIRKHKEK
Described as above. The following applies: 60-minute incubation at room temperature, 1% DMSO, pH 7.5. The essentials: as §1

In assay [1] the target is T4, KRas-mediated phosphorylation of ERK in MKN1 cells (Homo sapiens, UniProt P01116).
T4 construct: pERK HTRF read-out
T4 sequence (P01116 1-188 isoform P01116-2): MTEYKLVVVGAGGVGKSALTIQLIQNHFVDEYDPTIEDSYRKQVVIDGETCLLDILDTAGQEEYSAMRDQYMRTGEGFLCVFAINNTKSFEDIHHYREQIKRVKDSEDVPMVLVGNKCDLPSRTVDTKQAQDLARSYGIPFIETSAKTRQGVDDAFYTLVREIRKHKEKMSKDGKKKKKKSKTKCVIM
Briefly: Inhibition of KRas-mediated phosphorylation of ERK (HTRF), MKN1 cells. In kind it is cell-based. As to conditions: MKN1 cells (KRas WT); HTRF pERK; 3 h incubation. The procedure: Inhibition of KRas Phosphorylation of ERK (HTRF) by Exemplary Compounds of Formula (Ia) or (Ib)
Cisbio HTRF Advanced pERK Assay Catalog #64AERPEH • Cells: MKN1, PSN1 • Procedure: • 1. Day 1: Seed 6,000 cells/well −25 μl/well in 384-well white solid bottom plate; RPM1_10% FBS. Incubate overnight at 37 °C/5% CO2. • 2.

Assay [2] addresses T5, KRas-mediated phosphorylation of ERK in A549 cells (Homo sapiens, UniProt P01116, G12S).
T5 construct: pERK HTRF read-out
Briefly: Inhibition of KRas-mediated phosphorylation of ERK (HTRF), A549 cells. In kind it is cell-based. As to conditions: HTRF pERK, 3 h incubation.

The target in assay [3] is T6, KRas-mediated phosphorylation of ERK in H358 cells (Homo sapiens, UniProt P01116, G12C).
T6 construct: pERK HTRF read-out
T6 sequence (P01116 1-188 isoform P01116-2 G12C): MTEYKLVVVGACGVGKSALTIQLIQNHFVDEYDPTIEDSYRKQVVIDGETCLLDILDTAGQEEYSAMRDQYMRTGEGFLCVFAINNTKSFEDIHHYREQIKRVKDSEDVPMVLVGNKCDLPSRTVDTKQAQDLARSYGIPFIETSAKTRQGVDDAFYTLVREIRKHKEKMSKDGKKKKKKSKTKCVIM
Description: Inhibition of KRas-mediated phosphorylation of ERK (HTRF), H358 cells. In kind it is cell-based. The following applies: HTRF pERK, 3 h incubation.

T1 sequence (P01116 1-169 isoform P01116-2): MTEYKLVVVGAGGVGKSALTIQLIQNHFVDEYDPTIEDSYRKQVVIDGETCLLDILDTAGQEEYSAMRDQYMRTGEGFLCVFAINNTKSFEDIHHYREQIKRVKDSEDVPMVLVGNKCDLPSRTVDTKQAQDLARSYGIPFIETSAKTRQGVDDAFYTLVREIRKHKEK
T5 sequence (P01116 1-188 isoform P01116-2 G12S): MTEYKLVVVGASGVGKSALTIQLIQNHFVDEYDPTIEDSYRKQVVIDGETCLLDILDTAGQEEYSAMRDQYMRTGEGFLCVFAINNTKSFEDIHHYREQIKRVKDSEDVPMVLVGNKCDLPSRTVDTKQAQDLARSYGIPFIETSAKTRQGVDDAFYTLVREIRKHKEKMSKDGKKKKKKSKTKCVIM

Regarding `N#Cc1c(N)sc2c(F)ccc(-c3c(Cl)cc4c(N5CCN(C(=O)n6ccnc6)CC5)nc(OC[C@@]56CCCN5C[C@H](F)C6)nc4c3F)c12` [Example 231, 4-(4-(4-(1H-imidazole-1-carbonyl)piperazin-1-yl)-6-chloro-8-fluoro-2-(((2R,7aS)-2-fluorotetrahydro-1H-pyrrolizin-7a(5H)-yl)methoxy)quinazolin-7-yl)-2-amino-7-fluorobenzo[b]thiophene-3-carbonitrile], the IC50 was found to be 13 nM at KRas WT; 17 nM at KRas G12S; 5 nM on KRas G12C; 25 nM in assay [1]; 444 nM in assay [2]; 4 nM in assay [3].
Regarding `CN(CCN(C)c1nc(OC[C@@]23CCCN2C[C@H](F)C3)nc2c(F)c(-c3ccc(F)c4sc(N)c(C#N)c34)c(Cl)cc12)C(=O)n1cncn1` [Example 232, N-(2-((7-(2-amino-3-cyano-7-fluorobenzo[b]thiophen-4-yl)-6-chloro-8-fluoro-2-(((2R,7aS)-2-fluorotetrahydro-1H-pyrrolizin-7a(5H)-yl)methoxy)quinazolin-4-yl)(methyl)amino)ethyl)-N-methyl-1H-1,2,4-triazole-1-carboxamide], the IC50 came to 12 nM on KRas WT; 7 nM at KRas G12S; 3 nM on KRas G12C; 97 nM in assay [1]; 234 nM in assay [2]; 3 nM in assay [3].
Consider `CON(C(C)=O)C(=O)CCCN(C)c1nc(OC[C@@]23CCCN2C[C@H](F)C3)nc2c(F)c(-c3ccc(F)c4sc(N)c(C#N)c34)c(Cl)cc12` [Example 234, N-acetyl-4-((7-(2-amino-3-cyano-7-fluorobenzo[b]thiophen-4-yl)-6-chloro-8-fluoro-2-(((2R,7aS)-2-fluorotetrahydro-1H-pyrrolizin-7a(5H)-yl)methoxy)quinazolin-4-yl)(methyl)amino)-N-methoxybutanamide], for which the IC50 at KRas WT is 9 nM; at KRas G12S, 3 nM; at KRas G12C, less than 2 nM; in assay [1], 161 nM; in assay [2], 3 nM; in assay [3] it was 7 nM.
For `CN(C=O)C(=O)CCCN(C)c1nc(OC[C@@]23CCCN2C[C@H](F)C3)nc2c(F)c(-c3ccc(F)c4sc(N)c(C#N)c34)c(Cl)cc12` [Example 235, 4-((7-(2-amino-3-cyano-7-fluorobenzo[b]thiophen-4-yl)-6-chloro-8-fluoro-2-(((2R,7aS)-2-fluorotetrahydro-1H-pyrrolizin-7a(5H)-yl)methoxy)quinazolin-4-yl)(methyl)amino)-N-formyl-N-methylbutanamide], the IC50 turned out to be 6 nM on KRas WT; 2 nM on KRas G12S; 3 nM on KRas G12C; 82 nM in assay [1]; 7 nM in assay [2]; 60 nM in assay [3].
Turning to `CC(=O)N(C)C(=O)[C@@H]1C[C@@H]2CN(c3nc(OC[C@@]45CCCN4C[C@H](F)C5)nc4c(F)c(-c5ccc(F)c6sc(N)c(C#N)c56)c(Cl)cc34)C[C@@H]2C1` [Example 237, (3aR,5R,6aS)-N-acetyl-2-((S)-7-(2-amino-3-cyano-7-fluorobenzo[b]thiophen-4-yl)-6-chloro-8-fluoro-2-(((2R,7aS)-2-fluorotetrahydro-1H-pyrrolizin-7a(5H)-yl)methoxy)quinazolin-4-yl)-N-methyloctahydrocyclopenta[c]pyrrole-5-carboxamide], the half-maximal inhibitory concentration (IC50) came to 15 nM at KRas WT; 6 nM at KRas G12S; 18 nM on KRas G12C; 70 nM in assay [1]; 17 nM in assay [2]; 69 nM in assay [3].
Turning to `CC(=O)N(C)C(=O)[C@@H]1C[C@H]1CNc1nc(OC[C@@]23CCCN2C[C@H](F)C3)nc2c(F)c(-c3ccc(F)c4sc(N)c(C#N)c34)c(Cl)cc12` [Example 238, trans-N-acetyl-2-(((7-(2-amino-3-cyano-7-fluorobenzo[b]thiophen-4-yl)-6-chloro-8-fluoro-2-(((2R,7aS)-2-fluorotetrahydro-1H-pyrrolizin-7a(5H)-yl)methoxy)quinazolin-4-yl)amino)methyl)-N-methylcyclopropane-1-carboxamide], the IC50 at KRas WT came to 10 nM; on KRas G12S, 14 nM; on KRas G12C, 11 nM; in assay [1] it was 40 nM; in assay [2] it was 145 nM; in assay [3], 84 nM.
As for `CN(C)C(=O)N(C)C(=O)CCCN(C)c1nc(OC[C@@]23CCCN2C[C@H](F)C3)nc2c(F)c(-c3ccc(F)c4sc(N)c(C#N)c34)c(Cl)cc12` [Example 239, 4-((7-(2-amino-3-cyano-7-fluorobenzo[b]thiophen-4-yl)-6-chloro-8-fluoro-2-(((2R,7aS)-2-fluorotetrahydro-1H-pyrrolizin-7a(5H)-yl)methoxy)quinazolin-4-yl)(methyl)amino)-N-(dimethylcarbamoyl)-N-methylbutanamide], the IC50 came out at 11 nM at KRas WT; 8 nM on KRas G12S; 6 nM at KRas G12C; 171 nM in assay [1]; 669 nM in assay [2]; 114 nM in assay [3].
Turning to `COCC(C)OC(=O)C1CCN(c2nc(OC[C@@]34CCCN3C[C@H](F)C4)nc3c(F)c(-c4ccc(F)c5sc(N)c(C#N)c45)c(Cl)cc23)CC1` (stereo partly drawn) [Example 240, 1-methoxypropan-2-yl 1-(7-(2-amino-3-cyano-7-fluorobenzo[b]thiophen-4-yl)-6-chloro-8-fluoro-2-(((2R,7aS)-2-fluorotetrahydro-1H-pyrrolizin-7a(5H)-yl)methoxy)quinazolin-4-yl)piperidine-4-carboxylate], the IC50 on KRas WT amounted to 16 nM; at KRas G12S it was 62 nM; on KRas G12C it was 66 nM; in assay [1], 44 nM; in assay [2], 775 nM; in assay [3] it was 658 nM.
On to `N#Cc1c(N)sc2c(F)ccc(-c3c(Cl)cc4c(N5CCC(C(=O)N6CCOCC6)CC5)nc(OC[C@@]56CCCN5C[C@H](F)C6)nc4c3F)c12` [Example 241, 2-amino-4-(6-chloro-8-fluoro-2-(((2R,7aS)-2-fluorotetrahydro-1H-pyrrolizin-7a(5H)-yl)methoxy)-4-(4-(morpholine-4-carbonyl)piperidin-1-yl)quinazolin-7-yl)-7-fluorobenzo [b]thiophene-3-carbonitrile], for which the IC50 on KRas WT is 5 nM; on KRas G12S it was 11 nM; at KRas G12C, 11 nM; in assay [1], 27 nM; in assay [2] it was 367 nM; in assay [3], 163 nM.
As for `CON(C)C(=O)C1CCN(c2nc(OC[C@@]34CCCN3C[C@H](F)C4)nc3c(F)c(-c4ccc(F)c5sc(N)c(C#N)c45)c(Cl)cc23)CC1` [Example 242, 1-(7-(2-amino-3-cyano-7-fluorobenzo[b]thiophen-4-yl)-6-chloro-8-fluoro-2-(((2R,7aS)-2-fluorotetrahydro-1H-pyrrolizin-7a(5H)-yl)methoxy)quinazolin-4-yl)-N-methoxy-N-methylpiperidine-4-carboxamide], the IC50 on KRas WT stood at 8 nM; on KRas G12S, 12 nM; at KRas G12C, 14 nM; in assay [1] it was 17 nM; in assay [2], 240 nM; in assay [3] it was 149 nM.
As for `Cc1ccccc1OC(=O)C1CCN(c2nc(OC[C@@]34CCCN3C[C@H](F)C4)nc3c(F)c(-c4ccc(F)c5sc(N)c(C#N)c45)c(Cl)cc23)CC1` [Example 243, o-tolyl 1-(7-(2-amino-3-cyano-7-fluorobenzo[b]thiophen-4-yl)-6-chloro-8-fluoro-2-(((2R,7aS)-2-fluorotetrahydro-1H-pyrrolizin-7a(5H)-yl)methoxy)quinazolin-4-yl)piperidine-4-carboxylate], the IC50 on KRas WT amounted to 330 nM; at KRas G12S, 127 nM; at KRas G12C, 19 nM; in assay [1], 736 nM; in assay [2], 215 nM; in assay [3], 26 nM.
As to `COc1cccc(OC(=O)C2CCN(c3nc(OC[C@@]45CCCN4C[C@H](F)C5)nc4c(F)c(-c5ccc(F)c6sc(N)c(C#N)c56)c(Cl)cc34)CC2)c1` [Example 244, 3-methoxyphenyl 1-(7-(2-amino-3-cyano-7-fluorobenzo[b]thiophen-4-yl)-6-chloro-8-fluoro-2-(((2R,7aS)-2-fluorotetrahydro-1H-pyrrolizin-7a(5H)-yl)methoxy)quinazolin-4-yl)piperidine-4-carboxylate], the IC50 on KRas WT worked out at 289 nM; at KRas G12S, 23 nM; at KRas G12C it was 9 nM; in assay [1] it was 279 nM; in assay [2] it was 55 nM; in assay [3], 12 nM.

Broadly, the IC50 is the concentration that gives 50% inhibition. A low value points to higher potency.
